Where two headings read alike, the source gives them in different places.
Assays:
[1] = target: T1, HIF-2α HIS TAG-PASB Domain (Homo sapiens, UniProt Q99814); assay: HIF-2α Scintillation Proximity Assay (SPA); format: binding
T1 construct: 100 nM HIF-2α HIS TAG-PASB Domain
Procedure, shortened: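 IC50 values rest on percent inhibition, where the sample signal is scaled between high and low controls. Wells contain about 100 μL: compound dispensed as 2 μL of DMSO solution, 88 μL protein-probe mix and 10 μL of beads.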

[2] = test system: 786-O-Hif-Luc cells; assay: Luciferase Assay (HIF responsive elements reporter)
Procedure: A pool of infected cells were then selected against 2 μg/mL of puromycin (P8833, Sigma) for 10 days followed by limited dilution to select single clones. […] Each concentration was tested in triplicate. After about 24 hours, luciferase activity was determined using ONE-Glo Luciferase Assay Reagent (E6110, Promega) following the manufacturer's recommended procedure. EC50 were calculated using Dotmatics software.

[3] = read-out: Scintillation Proximity Assay IC50
[4] = read-out: Mean Luciferase EC50 (nM), 786-O-Hif-Luc cells
[5] = Scintillation Proximity Assay IC50 (nM)
[6] = read-out: Mean Luciferase EC50 (nM)

T1 sequence (Q99814 240-350 limits assumed): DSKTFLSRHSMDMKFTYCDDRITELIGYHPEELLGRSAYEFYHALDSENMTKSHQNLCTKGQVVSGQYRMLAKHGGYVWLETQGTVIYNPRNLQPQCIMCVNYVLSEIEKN

Compound	IC50 [1, 3]	EC50 [2, 4]	IC50 [1, 5]	EC50 [2, 6]
N#Cc1cc(F)cc(Oc2ccc(S(=N)(=O)C(F)(F)F)c3c2CCC3O)c1 (stereo not shown) [Compound 258]	250 to 1000 nM	> 1000 nM		
O=S(=O)(c1ccc(Oc2cc(Cl)c[n+]([O-])c2)c2c1[C@H](O)C(F)(F)C2)C(F)(F)F [Compound 260]	50 to 249 nM	50 to 249 nM		
O=S(=O)(c1ccc(Oc2cc(F)c(F)c3[nH]ncc23)c2c1C(O)C(F)(F)C2)C(F)(F)F (stereo not shown) [Compound 261]	250 to 1000 nM	> 1000 nM		
O=S(=O)(c1ccc(Oc2cccc3[nH]ncc23)c2c1[C@H](O)C(F)(F)C2)C(F)(F)F [Compound 263]	< 50 nM	250 to 1000 nM		
O=S(=O)(c1ccc(Oc2c(F)ccc3[nH]ncc23)c2c1[C@H](O)C(F)(F)C2)C(F)(F)F [Compound 264]	250 to 1000 nM	> 1000 nM		
CS(=O)(=O)c1ccc(Oc2cc(F)cc(C#N)c2)c2c1C(=O)C(F)(Cl)C2 (stereo not shown) [Compound 269]	250 to 1000 nM	> 1000 nM		
CS(=O)(=O)c1ccc(Oc2cc(F)cc(C#N)c2)c2c1[C@H](O)C(F)(Cl)C2 (stereo partly shown) [Compound 270]	50 to 249 nM	50 to 249 nM		
C[S+]([O-])c1ccc(Oc2cc(F)cc(C#N)c2)c2c1[C@H](O)C(F)(F)C2 (stereo partly shown) [Compound 272]	> 1000 nM	> 1000 nM		
N#CN=S(=O)(CF)c1ccc(Oc2cc(F)cc(C#N)c2)c2c1[C@H](O)[C@H](F)C2 (stereo partly shown) [Compound 276]	50 to 249 nM	50 to 249 nM		
N#Cc1cc(F)cc(Oc2ccc(S(=O)(=O)C(F)(F)F)c3c2[C@@H](N)C[C@H]3O)c1 [Compound 279]	> 1000 nM	> 1000 nM		
N#CN=S(=O)(CF)c1ccc(Oc2cc(F)cc(C#N)c2)c2c1[C@H](O)C(F)(F)C2 (stereo partly shown) [Compound 285]	50 to 249 nM	50 to 249 nM		
N#Cc1cc(F)cc(Oc2ccc(S(=O)(=O)C(F)(F)F)c3c2CC(F)(F)[C@H]3NCCO)c1 [Compound 291]	> 1000 nM	> 1000 nM		
CS(=O)(=O)c1ccc(Oc2cc(F)cc(C#N)c2)c2c1[C@H](O)C(F)(F)[C@H]2F [Compound 293]	250 to 1000 nM	250 to 1000 nM		
CS(=O)(=O)c1ccc(Oc2cc(F)cc(C#N)c2)c2c1[C@H](O)C[C@@H]2F [Compound 295]	50 to 249 nM	250 to 1000 nM		
CS(=O)(=O)c1ccc(Oc2cc(F)cc(C#N)c2)c2c1[C@H](O)[C@H](F)[C@@H]2O [Compound 296]	> 1000 nM	> 1000 nM		
C[C@@]1(F)Cc2c(Oc3cc(F)cc(C#N)c3)ccc(S(C)(=O)=O)c2[C@@H]1O [Compound 300]	> 1000 nM	> 1000 nM		
C[C@@H]1Cc2c(Oc3cc(F)cc(C#N)c3)ccc(S(C)(=O)=O)c2[C@@H]1O [Compound 301]	> 1000 nM	> 1000 nM		
CS(=O)(=NC#N)c1ccc(Oc2cc(F)cc(C#N)c2)c2c1[C@H](O)[C@H](F)C2 (stereo partly shown) [Compound 302]	50 to 249 nM	50 to 249 nM		
CS(=O)(=O)c1ccc(Oc2cc(F)cc(C#N)c2)c2c1[C@H](O)C(F)(F)[C@@H]2O [Compound 312]	50 to 249 nM	250 to 1000 nM		
CS(=O)(=O)c1ccc(Oc2cncc(C#N)c2)c2c1[C@H](O)[C@H](F)C2 [Compound 313]	> 1000 nM	> 1000 nM		
N#Cc1cncc(Oc2ccc(S(=N)(=O)C(F)(F)F)c3c2CC(F)(F)[C@H]3O)c1 (stereo partly shown) [Compound 314]	< 50 nM	50 to 249 nM		

Compound	IC50 [1, 3]	EC50 [2, 4]	IC50 [1, 5]	EC50 [2, 6]
CS(=O)(=O)c1ccc(Oc2cncc(Br)c2)c2c1[C@H](O)C(F)(F)C2 [Compound 324]	50 to 249 nM	250 to 1000 nM		
N#Cc1cc(F)cc(Oc2ccc(S(N)(=O)=O)c3c2C[C@@H](F)[C@H]3O)c1 [Compound 334]	50 to 249 nM	50 to 249 nM		
N#Cc1c(Oc2cc(F)cc(Cl)c2)ccc2c1[C@@H](O)CS2(=O)=O [Compound 348]	< 50 nM	50 to 249 nM		
NC1c2cc(Oc3cc(F)cc(Cl)c3)ccc2S(=O)(=O)C1(F)F (stereo not shown) [Compound 358]	50 to 249 nM	> 1000 nM		
O=S1(=O)CC(O)c2c1ccc(Oc1cc(F)cc(Cl)c1)c2C(F)F (stereo not shown) [Compound 361]	50 to 249 nM	250 to 1000 nM		
NC1CS(=O)(=O)c2ccc(Oc3cc(F)cc(Cl)c3)c(C(F)F)c21 (stereo not shown) [Compound 363]	> 1000 nM	> 1000 nM		
O=S1(=O)CC(O)c2c1ccc(Oc1cc(F)cc(F)c1)c2C(F)F (stereo not shown) [Compound 370]	50 to 249 nM	250 to 1000 nM		
[2H]C1(O)c2c(ccc(Oc3cc(F)cc(Cl)c3)c2C(F)F)S(=O)(=O)C1(F)F (stereo not shown) [Compound 371]			< 50 nM	< 50 nM
N#Cc1cc(F)cc(Oc2ccc3c(c2C(F)F)C(O)CS3(=O)=O)c1 (stereo not shown) [Compound 374]	250 to 1000 nM	> 1000 nM		
N=S1(=O)c2ccc(Oc3cc(F)cc(F)c3)c(Br)c2C(O)C1(F)F (stereo not shown) [Compound 377]	> 1000 nM	250 to 1000 nM		
N#Cc1c(Oc2cc(F)cc(F)c2)ccc2c1C(O)C(F)S2(=O)=O (stereo not shown) [Compound 390]	> 1000 nM	250 to 1000 nM		
Cc1cc(C#N)cc(Oc2ccc3c(c2C(F)F)[C@@H](O)C(F)(F)S3(=O)=O)c1 [Compound 392]	< 50 nM	50 to 249 nM		
N#CN=S1(=O)CC(O)c2c1ccc(Oc1cc(F)cc(F)c1)c2C(F)F (stereo not shown) [Compound 394]	> 1000 nM	> 1000 nM		
N#CN=S1(=O)c2ccc(Oc3cc(F)cc(F)c3)c(C(F)F)c2C(O)C1(F)F (stereo not shown) [Compound 397]	< 50 nM	> 1000 nM		
N[C@@H]1c2c(ccc(Oc3cc(F)cc(F)c3)c2C(F)F)S(=O)(=O)C1(F)F [Compound 401]	< 50 nM	50 to 249 nM		
O=S1(=O)c2ccc(Oc3cc(F)cc(Cl)c3)c(Br)c2[C@@H](O)C1(F)F [Compound 403]			< 50 nM	< 50 nM
O=S1(=O)c2ccc(Oc3cc(F)cc(Cl)c3)c(Br)c2[C@H](O)C1(F)F [Compound 405]			50 to 249 nM	50 to 249 nM
C#Cc1c(Oc2cc(F)cc(C#N)c2)ccc2c1C(O)C(F)(F)S2(=O)=O (stereo not shown) [Compound 409]	50 to 249 nM	50 to 249 nM		
O=S1(=O)c2ccc(OCc3ccccc3)c(C(F)F)c2C(O)C1(F)F (stereo not shown) [Compound 411]	250 to 1000 nM	250 to 1000 nM		
N#CN=S1(=O)c2ccc(Oc3cc(F)cc(F)c3)c(Cl)c2[C@@H](O)C1(F)F (stereo partly shown) [Compound 412]	50 to 249 nM	> 1000 nM		
N#Cc1c(Oc2cc(F)cc(F)c2)ccc2c1[C@@H](O)CS2(=O)=O [Compound 414]	50 to 249 nM	250 to 1000 nM		

Compound	IC50 [1, 3]	EC50 [2, 4]	IC50 [1, 5]	EC50 [2, 6]
N#Cc1cc(F)cc(Oc2ccc3c(c2C#N)[C@@H](O)CS3(=O)=O)c1 [Compound 416]	> 1000 nM	250 to 1000 nM		
N#Cc1c(Oc2cccc(F)c2)ccc2c1[C@@H](O)CS2(=O)=O [Compound 422]	250 to 1000 nM	250 to 1000 nM		
O=S1(=O)c2ccc(Oc3cncc(F)c3)c(Br)c2[C@@H](O)C1(F)F [Compound 423]	250 to 1000 nM	50 to 249 nM		
COc1cc(F)cc(Oc2ccc3c(c2Br)[C@@H](O)C(F)(F)S3(=O)=O)c1 [Compound 426]	50 to 249 nM	250 to 1000 nM		
COc1cc(F)cc(Oc2ccc3c(c2C#N)[C@@H](O)C(F)(F)S3(=O)=O)c1 [Compound 427]	50 to 249 nM	> 1000 nM		
Cc1cncc(Oc2ccc3c(c2Br)[C@@H](O)C(F)(F)S3(=O)=O)c1 [Compound 428]	> 1000 nM	> 1000 nM		
N#Cc1cccc(Oc2ccc3c(c2Br)[C@@H](O)C(F)(F)S3(=O)=O)c1 [Compound 430]	< 50 nM	< 50 nM		
O=S1(=O)c2ccc(Oc3cncc(Cl)c3)c(Cl)c2[C@@H](O)C1(F)F [Compound 432]	250 to 1000 nM	250 to 1000 nM		
COc1c(Oc2cc(F)cc(C#N)c2)ccc2c1C(O)C(F)(F)S2(=O)=O (stereo not shown) [Compound 433]	250 to 1000 nM	> 1000 nM		
N#Cc1cc(F)cc(Oc2ccc3c(c2F)C(O)C(F)(F)S3(=O)=O)c1 (stereo not shown) [Compound 434]	250 to 1000 nM	250 to 1000 nM		
N#Cc1cccc(Oc2ccc3c(c2C(F)F)[C@@H](O)C(F)(F)S3(=O)=O)c1 [Compound 435]	< 50 nM	< 50 nM		
O=S1(=O)c2ccc(Oc3ccc(F)c(F)c3)c(C(F)F)c2[C@@H](O)C1(F)F [Compound 436]	< 50 nM	50 to 249 nM		
N#Cc1cc(Oc2ccc3c(c2C(F)F)[C@@H](O)C(F)(F)S3(=O)=O)ccc1F [Compound 437]	50 to 249 nM	250 to 1000 nM		
O=S1(=O)c2ccc(OCC3CC3)c(C(F)F)c2[C@@H](O)C1(F)F [Compound 439]	> 1000 nM	> 1000 nM		
O=S1(=O)c2ccc(Oc3cccc4sccc34)c(C(F)F)c2C(O)C1(F)F (stereo not shown) [Compound 440]	< 50 nM	250 to 1000 nM		
O=S1(=O)c2ccc(Oc3cccc4cn[nH]c34)c(C(F)F)c2C(O)C1(F)F (stereo not shown) [Compound 441]	> 1000 nM	> 1000 nM		
N#Cc1c(Oc2cc(F)cc(F)c2)ccc2c1C(O)C(F)(F)S2(=O)=O (stereo not shown) [Compound 443]	< 50 nM	250 to 1000 nM		
CC1(O)c2c(ccc(Oc3cc(F)cc(F)c3)c2Br)S(=O)(=O)C1(F)F (stereo not shown) [Compound 444]	50 to 249 nM	250 to 1000 nM		
N#Cc1cc(F)cc(Oc2ccc3c(c2C#N)C(N)C(F)(F)S3(=O)=O)c1 (stereo not shown) [Compound 464]	> 1000 nM	> 1000 nM		
O=S(=O)(c1ccc([C@@H]2CCC[C@@H](O)C2)c2c1[C@H](O)C(F)(F)C2)C(F)(F)F [Compound 480, (S)-2,2-difluoro-4-((1R,3R)-3-hydroxycyclohexyl)-7-((trifluoromethyl)sulfonyl)-2,3-dihydro-1H-inden-1-ol]	50 to 249 nM	50 to 249 nM		

Source: patent publication US10278942B2 (PELOTON THERAPEUTICS, INC., priority 2015, dated 2019)
